The text below walks through data of patent US10111876B2, “ALK Kinase Inhibitor and its use” (Macau University of Science and Technology, priority 2016, dated 2018).

For experiment [1], the system named is H2228 cells. Kind of experiment: MTT cell viability assay, H2228 cells. Format: cell-based. The conditions noted are these: Homo sapiens, NCI-H2228, 72 h treatment. The procedure:
(§1) H2228 and CCD19(Lu) cells were obtained from the American Type Culture Collection and cultured in an environment of 5% CO2 at 37° C. in RPMI-1640 mediums supplemented with 10% fetal bovine serum (FBS), 100 units/mL penicillin, and 100 μg/mL streptomycin.
(§2) Cell viability was determined by MTT assay. H2228 and CCD19 cells (3×10^3 cells/well) were seeded into a 96-well plate and treated with indicated concentrations of the compound of Formula (V) for 72 h. At the end of incubation, 10 μl MTT (0.5 mg/ml) (Sigma) was added to each well. After incubating for 4 h at 37° C., supernatants were removed and 150 μl of DMSO was added. The formazan crystals formed inside the viable cells were solubilized in DMSO and the OD was read with Microplate Reader (Epoch, Winooski, USA) at 570 nm. The IC50 value for the compound was determined by GraphPad Prim5.0 software. The experiments were performed three times with three replicates in each.
(Tetrazolium assays rely on reduction of a dye to a coloured formazan, in cell work by metabolically active cells.)

Experiment [2] deals with recombinant ALK kinase domain (Homo sapiens, UniProt Q9UM73). Kind of experiment: LanthaScreen Eu Kinase Binding Assay, recombinant ALK kinase domain. The following applies: room temperature, 1 h. The procedure: Enzymatic assay for recombinant ALK kinase domain was conducted using the LanthaScreen® Eu Kinase Binding Assays. LanthaScreen® Eu Kinase Binding Assays are based on the binding and displacement of a proprietary. The assay was performed at room temperature for 1 h in a total volume of 15 μL, including 5 μL of test compound, 5 μL of kinase/antibody mixture and 5 μL of tracer. After 1 h incubation, fluorescence was measured. The division of acceptor/tracer emission (665 nm) by the antibody/donor emission (615 nm) was used to calculate the emission ratio.
recombinant ALK kinase domain, sequence (Q9UM73 1116-1392 limits assumed): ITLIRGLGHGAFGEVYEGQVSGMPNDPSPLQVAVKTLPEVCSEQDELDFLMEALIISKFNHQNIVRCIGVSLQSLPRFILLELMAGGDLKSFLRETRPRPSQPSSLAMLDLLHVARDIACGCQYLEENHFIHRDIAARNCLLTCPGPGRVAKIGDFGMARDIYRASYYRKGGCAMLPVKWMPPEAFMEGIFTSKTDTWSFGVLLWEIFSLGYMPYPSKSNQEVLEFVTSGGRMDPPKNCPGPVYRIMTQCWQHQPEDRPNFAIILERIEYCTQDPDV
Background: In TR-FRET formats the signal depends on donor and acceptor labels being close together.

Experiment [3] has as its system normal lung cells CCD19. Kind of experiment: MTT cell viability assay, normal lung cells CCD19. The experiment is classed as cell-based. The following applies: 72 h treatment. The procedure:
as §1, §2

Usually IC50 stands for the concentration that gives 50% inhibition. A lower IC50 goes with greater potency. In general, EC50 refers to the concentration giving half of the maximal effect. As for `Cc1sc2nc3c4ccccc4c(NCCCN(C)C)nn3c(=O)c2c1C` [Formula (V)], the concentration for half-maximal inhibition (IC50) came out at 4.11 ± 0.96 µM in experiment [1] and 16.8 ± 2.04 µM in experiment [3]. The EC50 in experiment [2] was found to be 0.0196 µM.
